A short description of series [1]: in vitro. Conditions: 37° C.; for half-life: human, serum. In kind it is in vitro ADME. How it is done: The hydrolytic activity of the sterol prodrug may be evaluated by studies of the chemical or enzymatic conversion of the prodrug to the unmodified parent compound, as described in Example 26.
Generally, the sterol/chemical modifier complex is dissolved in a minimum amount of a suitable solvent, such as ethanol, and the resulting solution is added to a sample of human serum. Following incubation, aliquots are then removed at various time points and analyzed to determine the extent of hydrolysis. Table I herein lists the representative serum half-lives of a number of testosterone prodrugs according to the present invention.
The rates of conversion are readily determined, for example by spectrophotometric methods or by gas-liquid or high performance liquid chromatography. Half-lives and other kinetic parameters may then be calculated using standard techniques.
Determination of Testosterone Prodrug Hydrolysis in Serum
Stock solutions (6 mM) of the testosterone prodrugs were prepared in ethanol (dissolution was accomplished by vortexing, sonication, or warming at 37° C., as needed). If required for dissolution, one drop of a co-solvent such as dimethylsulfoxide, dimethylformamide or methanol was added. (Acetonitrile is undesirable because it deactivates the serum enzymes).
HPLC separation methods were established for each study by dilution of the above stock solutions (6 μl) in acetonitrile (1 ml) to form 36 μM solutions. Samples (10 μl) were injected onto a Nucleosil 5C8 column (250×4 mm ID) fitted with an additional guard column (11×4 mm ID) and eluted with a mobile phase of approximately 65% HPLC grade water and 35% trifluoroacetic acid in acetonitrile (0.1% TFA in acetonitrile). Exact proportions of the mobile phase eluents were adjusted in each case to give optimum separation and run times.
Freshly defrosted human serum (3 ml, Sigma) was warmed at 37° C. for five minutes and then the testosterone prodrug stock solution (60 μl) was added with vortexing. […] The aliquots were added to 800 μl of 2% zinc sulfate solution in a 1.5 ml disposable microcentrifuge tube, vortexed immediately and centrifuged at 14,000 RPM for 3 minutes. The supernatants (10 μl) were injected onto the HPLC and peak areas used to determine the percent of parent drug formed or percent of prodrug remaining. Serum blanks were prepared similarly by addition of serum to the zinc sulfate solution, followed by centrifugation. Initial (time=0) samples were prepared by adding serum to the zinc sulfate solution, followed by addition of the complex and separation by centrifugation. The time=0 samples, as well as the original stock solutions, were also used to assess the stability of the complex in the absence of enzyme. Half-lives were determined using the following equation : […]
and plotting time (x ordinate) versus the natural logarithm of percent remaining prodrug (y ordinate) to obtain the slope (m) and the y intercept (b).

The nature of series [2]: in vitro. It counts as cell-based, human. Conditions: human, dermal fibroblasts, MTT; for CC50 at 2 h: IC50 2 h (cytotoxicity), 2 h incubation; for CC50 at 16 h: IC50 16 h (cytotoxicity), 16 h incubation. How it is done:
As discussed above, the chemical modifier, when present in the subject in its free or released form, and in appropriately administered amounts, should preferably be non-toxic. Additionally, any further in vivo degradation products of the chemical modifier should be non-toxic, as well. Table 2 provides in vitro relative cytotoxicity data for a number of testosterone/chemical modifier complexes, prepared in accordance with the invention. The cytotoxicity assessment was carried out by examining the viability of human dermal fibroblasts in the presence of a number of testosterone/chemical modifier complexes in accordance with the present invention. Details of the experimental protocol are summarized in Example 27.
The viability of human dermal fibroblasts in the presence of the 17-hydroxy sterol/chemical modifier compounds was assayed using MTT (3-[4,5-dimethylthiazol-2-yl]-2,5-diphenyltetrazolium bromide) reduction to formazan by mitochondrial enzymes as an indicator of cytotoxicity (Swisher, et al.). Confluent fibroblast cells were incubated for 2 or 16 hours in the presence of increasing concentrations of drug complex. At the end of the incubation period, medium was replaced for 4 hours by medium containing the tetrazolium salt, MTT. Metabolism of MTT to a blue formazan was quantitated by spectrophotometry at 540 nm.

The format of series [3] is in vitro ADME, mouse. Conditions: for Flux, active electrotransport (ET): murine skin, active cells (ETm), 10 mM donor, 100 uA/cm^2, 6 h, 32° C.; for Enhancement in in vitro electrotransport skin flux compared to testosterone: hairless mouse skin, vs unmodified testosterone, 'nearly 10-fold enhancement or greater'. How it is done: In vitro electrotransport of testosterone/chemical modifier complexes across hairless mouse skin was evaluated as described in Example 28. The experiments were conducted using modified Valia-Chien cells having 1.0 ml donor and 2.5 ml receptor cells. Anodic transport was carried out using a silver wire-based salt bridge in the donor compartment and a silver chloride cathode in the receptor. Cathodic transport was effected by reversing the electrode configuration. The cells were connected in series and a constant current and temperature were supplied to each cell.
After a predetermined period of time (6 h), aliquots were removed from the receiver phase for immediate analysis by HPLC to determine cumulative flux.
The electrotransport of testosterone/chemical modifier complexes was achieved using modified Valia-Chien cells (1.0 ml donor and 2.5 ml receptor cells). Full thickness, hairless mouse skin (Charles River Labs, Wilmington, Mass.) was soaked for one hour in phosphate buffered saline (PBS, pH=7.4) before placing between each compartment (dermal side of skin facing toward receptor). One passive (P1:data) and two or more (ETm :data) active cells were used to screen each compound.
A 10 mM (1 ml) aqueous solution of testosterone drug/prodrug was placed in the donor (unstirred) compartment and the receptor (stirred) was filled with 2.5 ml of PBS. In order to check for egress due to e.g. damaged skin, a zero hour sample of receptor ([…]) was taken one half hour after the drug solution was placed in the donor compartment. Replacement fluid of equal sample volume was added to the receptor compartment immediately after samples were taken.
Anodic electrotransport was achieved using a silver wire (immersed in a polyvinylalcohol-based salt bridge to minimize junction potential) in the donor compartment and a AgCl cathode in the receptor. […] The electrotransport cells were connected in series and constant current (100 uA/cm^2, […] for a skin area of 0.64 cm^2) and temperature (32° C.) were supplied to each cell. After six hours of active/passive transport, aliquots (200 ul) of the receptor were sampled and immediately analyzed by HPLC.
A standard plot of peak area and concentration for each compound was constructed using HPLC. The peak areas of the samples were determined and the concentrations calculated using the standard data. Cumulative flux was calculated using Quickbasic and reported in nmol/cm^2 /hr.

A short description of series [4]: Water solubility (H2O sol). Conditions: H2O sol.
[5] abbreviates: footnote 1: prodrug remaining, no testosterone formed.

Here are results for ten compounds from patent publication US5622944A, “Testosterone prodrugs for improved drug delivery” (Affymax Technologies N.V., priority 1995, dated 1997).

What is called half-life is the time needed for the level to fall by half in the phase considered. As a reminder, the CC50 is the concentration that lowers cell viability or growth by half. High values mean better tolerance by the cells, low ones harm at low concentration. Usually solubility stands for the concentration that dissolves in the medium under given conditions.

Structures can show the parent of a compound that is named as a salt. A value given as a limit tells only on which side of the number the result lay.

Take `C[C@]12CC[C@H]3[C@@H](CCC4=CC(=O)CC[C@@]43C)[C@@H]1CC[C@@H]2OC(=O)C[N+](C)(C)C` [Code 2.2, testosterone-17β-betainoyl ester, bromide salt]: the half-life in the series “in vitro [1]” (HPLC) was 14 h. In “in vitro [2]”, half-maximal cytotoxicity (CC50 at 2 h) was put at 2300 µM and half-maximal cytotoxicity (CC50 at 16 h) was put at 650 µM. The “Flux, active electrotransport (ET)” value in series [3] stood at 7.9 ± 4.1 nmol/cm^2 /hr. For the same compound, the Degradation in “Degradation (%/d)” worked out at 0 %/d. The solubility in series [4] amounted to 10 mg/mL.

`C[C@]12CC[C@H]3[C@@H](CCC4=CC(=O)CC[C@@]43C)[C@@H]1CC[C@@H]2OC(=O)CCC[N+](C)(C)C` [Code 2.3]: the half-life in “in vitro [1]” (setting [5]) was ~15 h. In addition, in “in vitro [2]”, the CC50 at 2 h amounted to 653 µM and the CC50 at 16 h stood at 172 µM. Besides, in series [3], the “Flux, active electrotransport (ET)” value is on record as 2.0 ± 0.8 nmol/cm^2 /hr. Further, the Degradation in “Degradation (%/d)” was determined as 0 %/d. This compound also had a solubility in series [4] of 20 mg/mL.

For the compound `C[C@]12CC[C@H]3[C@@H](CCC4=CC(=O)CC[C@@]43C)[C@@H]1CC[C@@H]2OC(=O)CCCC[N+](C)(C)C` [Code 2.4], the half-life in “in vitro [1]” (HPLC) is ~720 h. Moreover, in the series “in vitro [2]”, the midpoint of cytotoxicity, the CC50 at 2 h, lay at 609 µM and the CC50 at 16 h was found to be 568 µM. Moreover, the “Flux, active electrotransport (ET)” value in series [3] was 2.7 ± 1.1 nmol/cm^2 /hr. For the same compound, the Degradation in “Degradation (%/d)” was determined as 0 %/d. The compound also returned a solubility in series [4] of 18 mg/mL.

`C[C@]12CC[C@H]3[C@@H](CCC4=CC(=O)CC[C@@]43C)[C@@H]1CC[C@@H]2OC(=O)CC[N+](C)(C)C` [Code 2.5, testosterone-17β-(N,N,N-trimethyl-β-alaninyl ester), bromide salt]: the half-life in “in vitro [1]” (setting [5]) is ~0.167 h. Moreover, in the series “in vitro [2]”, the CC50 at 2 h is > 600 µM and the CC50 at 16 h was found to be 329 µM. Also, in series [3], the “Enhancement in in vitro electrotransport skin flux compared to testosterone” value was ≥ 10 fold and the “Flux, active electrotransport (ET)” value worked out at 18.0 ± 2.4 nmol/cm^2 /hr. In the series “Degradation (%/d)”, this compound had a Degradation of 0 %/d. Besides, the solubility in series [4] came to 0.3 mg/mL.

As for `CC(=O)O[C@@H]1C[C@@H](C(=O)O[C@H]2CC[C@H]3[C@@H]4CCC5=CC(=O)CC[C@]5(C)[C@H]4CC[C@]23C)[N+](C)(C)C1` [Code 2.6, testosterone-17β-[(O-acetyl)-betonicinyl ester], chloride salt], the half-life in the series “in vitro [1]” (HPLC) is 8.2 h. In “in vitro [2]”, this compound yielded a CC50 at 2 h of 733 µM and a CC50 at 16 h of 271 µM. Further, in series [3], the “Flux, active electrotransport (ET)” value turned out to be 0 nmol/cm^2 /hr. This compound yielded a Degradation in the series “Degradation (%/d)” of 0 %/d. In series [4], this compound gave a solubility of 21 mg/mL.

`C[n+]1cccc(C(=O)O[C@H]2CC[C@H]3[C@@H]4CCC5=CC(=O)CC[C@]5(C)[C@H]4CC[C@]23C)c1` [Code 2.8]: the half-life in the series “in vitro [1]” (HPLC) is 25.5 h. In the series “in vitro [2]”, this compound registered a CC50 at 2 h of 598 µM and a CC50 at 16 h of 492 µM. The “Flux, active electrotransport (ET)” value in series [3] worked out at 3.1 ± 1.2 nmol/cm^2 /hr. In “Degradation (%/d)”, this compound displayed a Degradation of 0 %/d. In addition, the concentration in solution in series [4] (solubility) was 0.8 mg/mL.

In the case of `C[C@]12CC[C@H]3[C@@H](CCC4=CC(=O)CC[C@@]43C)[C@@H]1CC[C@@H]2OC(=O)OCOC(=O)CCCCC[N+](C)(C)C` [Code 3.2, testosterone-17β-[6-(N,N,N-trimethylammonio)hexanoyloxy-methyl]carbonate iodide salt], in the series “in vitro [1]” (HPLC), the half-life is 0.217 h. In the series “in vitro [2]”, this compound came in with a CC50 at 2 h of 615 µM and a CC50 at 16 h of 406 µM. In addition, in series [3], the “Flux, active electrotransport (ET)” value came to 4.8 ± 0.6 nmol/cm^2 /hr. The same compound gave a Degradation in “Degradation (%/d)” of 77 %/d. This compound also showed a solubility in series [4] of 20 mg/mL.

In the case of `C[C@]12CC[C@H]3[C@@H](CCC4=CC(=O)CC[C@@]43C)[C@@H]1CC[C@@H]2OC(=O)Oc1ccc(CC[N+](C)(C)C)cc1` [Code 3.4, testosterone-17β-candicine carbonate, iodide salt], the half-life in the series “in vitro [1]” (HPLC) is 5.8 h. In addition, in the series “in vitro [2]”, the midpoint of cytotoxicity, the CC50 at 2 h, lay at 544 µM and it took 44.6 µM to reach half-maximal cytotoxicity (CC50 at 16 h). The “Flux, active electrotransport (ET)” value in series [3] was found to be 0 nmol/cm^2 /hr. The compound also came in with a Degradation in “Degradation (%/d)” of 1 %/d. In series [4], this compound gave a solubility of 0.1 mg/mL.

For `COC(=O)[C@H](COC(=O)O[C@H]1CC[C@H]2[C@@H]3CCC4=CC(=O)CC[C@]4(C)[C@H]3CC[C@]12C)N(C)C` [Code 3.6, testosterone-17β-(N,N-dimethyl-L-serine methyl ester) carbonate, hydrochloride salt], in the series “in vitro [1]” (human serum, HPLC, hydrochloride salt), the Serum half-life came to 0.75 h. Besides, in the series “in vitro [2]”, the CC50 at 2 h came to 224 µM and the CC50 at 16 h turned out to be 157 µM. The “Flux, active electrotransport (ET)” value in series [3] came out at 6.8 ± 0.3 nmol/cm^2 /hr. Also, the Degradation in the series “Degradation (%/d)” was 3.8 %/d. The compound also displayed a solubility in series [4] of 20 mg/mL.

`C[C@]12CC[C@H]3[C@@H](CCC4=CC(=O)CC[C@@]43C)[C@@H]1CC[C@@H]2OC(=O)C=CC[N+](C)(C)C` [Code 3.8, testosterone-17β-[(4-N,N,N-trimethylammonio) crotonate], chloride salt] had a half-life in the series “in vitro [1]” (HPLC) of 122 h. In “in vitro [2]”, this compound came in with a half-maximal cytotoxic concentration (CC50) at 2 h of 2290 µM and a CC50 at 16 h of 583 µM. In series [3], the “Enhancement in in vitro electrotransport skin flux compared to testosterone” value was ≥ 10 fold and the “Flux, active electrotransport (ET)” value was 9.4 ± 1.2 nmol/cm^2 /hr. In “Degradation (%/d)”, the Degradation is 0 %/d. This compound also showed a solubility in series [4] of 21 mg/mL.
